Our source for the IC50 values is BindingDB's records for doi:10.1016/j.bmcl.2012.05.078 (University of Milan, 2012).

A short description of this assay: Inhibition of Met-triggered cell scattering in HGF-stimulated MDCK cells preincubated for overnight before HGF challenge measured after 24 to 48 hrs.
Compound `O=C(Cc1cc(C(F)(F)F)cc(C(F)(F)F)c1)N[C@@H](Cc1ccccc1)C(=O)Nc1ccc(-c2cn3c(n2)sc2ccccc23)cc1` returned an IC50 of 0.2 µM. With `O=C(Cc1cc(C(F)(F)F)cc(C(F)(F)F)c1)N[C@H](Cc1ccccc1)C(=O)Nc1ccc(-c2cn3c(n2)sc2ccccc23)cc1` the figure was 0.2 µM; with `O=C(Cc1cc(C(F)(F)F)cc(C(F)(F)F)c1)NC(Cc1ccccc1)c1cn(-c2ccc(-c3cn4c(n3)sc3ccccc34)cc2)nn1` (centres undefined), 0.6 µM. With `Cc1[nH]c(/C=C2\C(=O)Nc3ccc(S(=O)(=O)N(C)c4cccc(Cl)c4)cc32)c(C)c1C(=O)N1CCN(C)CC1` [(3Z)-N-(3-CHLOROPHENYL)-3-({3,5-DIMETHYL-4-[(4-METHYLPIPERAZIN-1-YL)CARBONYL]-1H-PYRROL-2-YL}METHYLENE)-N-METHYL-2-OXOINDOLINE-5-SULFONAMIDE] the figure was 0.2 µM.

Broadly, the IC50 is the midpoint of a concentration-inhibition curve. A lower IC50 goes with inhibition by little substance.
